Experimental data as given in patent publication US8524692B2, “Ocular compositions containing dioleoylphosphatidylglycerol and uses thereof” (Georgia Health Sciences University Research Institute, Inc., priority 2010, dated 2013).

Experiments:
keratinocytes [1] = experiment: [3H]Thymidine incorporation into DNA in keratinocytes; type: cell-based; conditions: for inhibition of proliferation in rapidly dividing keratinocytes / promotion of proliferation in slowly dividing keratinocytes: 24 hours, PG species prepared by bath sonication, compared with egg phosphatidylglycerol
Method: Keratinocytes were treated for 24 hours with the indicated concentrations of different phosphatidylglycerol species, prepared via bath sonication of phospholipid in serum-free keratinocyte medium. [^3H]Thymidine incorporation into DNA was then determined in duplicate and averaged. All data were transformed prior to analyses to improve assumptions of normality and additivity for the models to be used. Experiments were grouped that had different responses to egg phosphatidylglycerol using finite mixture regression models and the flexmix package in R (1). This method clusters each experiment by the regression fit between In(CPM) and In(concentration), grouping cultures with similar regression lines in the same cluster. The number of clusters was determined using the Bayesian information criterion (BIC). A mixed model analysis of variance was used, conducted using the Proc Mixed procedure in SAS 9.13, separately for each of the grouped clusters to determine how the different phosphatidylglycerol species affected the relationship between cell proliferation and phosphatidylglycerol concentration. The model used for this analysis of variance included phosphatidylglycerol species as a fixed effect that potentially interacted with In(concentration), and random coefficients for each culture/experiment. The number of experiments segregating into each cluster are indicated and *p<0.05 versus the response to egg phosphatidylglycerol liposomes.
[^3H]Thymidine Incorporation Assays: [^3H]Thymidine incorporation into DNA is measured as described (62).
The effect of providing phosphatidylglycerol directly to keratinocytes in the form of liposomes was examined, since direct provision of phosphatidylglycerol itself should also trigger early differentiation. […] The egg phosphatidylglycerol used in these experiments is composed primarily of the dioleoyl and dipalmitoyl species; therefore, that there is no effect of dipalmitoyl-PP on DNA synthesis was also determined. On the other hand, if phosphatidylglycerol liposomes are applied to keratinocytes with decreased proliferative capacity, presumably as the result of contact inhibition (and as indicated by reduced [3H]thymidine incorporation into DNA under control conditions), DNA synthesis is stimulated in a dose-dependent manner, with a half-maximal effect at a concentration of approximately 35_g/mL and a maximal stimulation at 100 μg/mL.

[2] = tested on: transformed human corneal epithelial cells; experiment: Scratch wound closure assay in corneal epithelial cells; type: cell-based; conditions: 24 hours
Method: SV40-immortalized human corneal epithelial cells were cultured in a 1:1 mixture of defined keratinocyte serum free (dKSF) medium (Gibco) and minimum essential medium (Cellgro) until confluent. A pipet tip was then used to create a scratch wound in the confluent monolayer. Cells were rinsed with PBS to remove unattached and damaged cells and photographed under the microscope. The medium was replaced with dKSF containing the indicated additions (Ca corresponds to 1 mM Ca^2+). Cells were incubated for 24 hours and photographed again. Percent wound closure was calculated as the change in width of the scratch wound compared to the size of the initial wound and was expressed relative to the control (medium with no additions containing 90 μM Ca^2+); *p<0.05; **p<0.01 versus the control (n=3).
FIGS. 8A-8B show the effect of egg phosphatidylglycerol and dioleoylphosphatidylglycerol on wound closure in transformed human corneal epithelial cells. SV40-immortalized human corneal epithelial cells were cultured in a 1:1 mixture of defined keratinocyte serum free (dKSF) medium (Gibco) and minimum essential medium (Cellgro) until confluent. […] Percent wound closure was calculated as the change in width of the scratch wound compared to the size of the initial wound and was expressed relative to the control (medium with no additions); *p<0.05 versus the control (n=3). […]

[3] = tested on: SV40-immortalized human corneal epithelial cells; experiment: [3H]Thymidine incorporation into DNA in corneal epithelial cells; type: cell-based; conditions: 1 mM calcium versus control 90 μM, 24 hours
Method: [^3H]Thymidine incorporation into DNA was then determined. Values represent the means±SEM of 3 separate experiments performed in duplicate; *p<0.05, **p<0.01 versus the control value.
SV40-immortalized human corneal epithelial cells were cultured in a 1:1 mixture of defined keratinocyte serum free (dKSF) medium (Gibco) and minimum essential medium (Cellgro) until approximately 70% confluent. […] [^3H]Thymidine incorporation into DNA was then determined. Values represent the means±SEM of 4 separate experiments performed in duplicate; *p<0.01 versus the control value.
The cells are cultured in defined keratinocyte serum-free (dKSF) medium (Gibco) and passaged following trypsinization from the culture dish.

keratinocytes [4] = conditions: concentrations from 0.1 to 1%; cited from earlier work
keratinocytes [5] = conditions: cited from earlier work
PLD = conditions: acute stimulation, radiolabeled phosphatidylethanol production; cited from earlier work

## palmitoyl, linoleoyl-PG
Keratinocytes [1]
  inhibition of proliferation in rapidly dividing keratinocytes: particularly effective at inhibiting proliferation

## OCC(O)CO [glycerol]
[2]; 0.05% glycerol and calcium (1 mM Ca2+)
  wound closure: significantly enhanced wound closure
[3]
  inhibition of DNA synthesis together with elevated extracellular calcium: more efficiently inhibit DNA synthesis than either agent alone
Keratinocytes [4]
  effect on DNA synthesis ([3H]thymidine incorporation) in keratinocytes: inhibited DNA synthesis

## CCCCCCCC/C=C\CCCCCCCC(=O)O[C@H](COC(=O)CCCCCCCCCCCCCCC)COP(=O)(O)OCC(O)CO (stereo partly drawn) [Palmitoyl, oleoyl-PG, palmitoyloleoylphosphatidylglycerol]
Keratinocytes [1]
  promotion of proliferation in slowly dividing keratinocytes: especially effective proproliferative

## CCCCC/C=C\C/C=C\CCCCCCCC(=O)OC[C@H](COP(=O)(O)OCC(O)CO)OC(=O)CCCCCCC/C=C\C/C=C\CCCCC (stereo partly drawn) [dilinoleoyl-PG]
Keratinocytes [1]
  inhibition of proliferation in rapidly dividing keratinocytes: particularly effective at inhibiting proliferation

## C=C1/C(=C\C=C2/CCC[C@]3(C)[C@@H]([C@H](C)CCCC(C)(C)O)CC[C@@H]23)C[C@@H](O)C[C@@H]1O [1,25-dihydroxyvitamin D3]
Keratinocytes [5]; 250 nM, 24 hours
  radiolabeled PG formation: a decrease

## CCCCCCCCCCCCCCCC(=O)OC[C@H](COP(=O)(O)OCCC)OC(=O)CCCCCCCCCCCCCCC [dipalmitoyl-PP]
Keratinocytes [1]; liposomes
  effect of liposomes on DNA synthesis in highly proliferative keratinocytes: no effect

## OC[C@@H](O)[C@H](O)[C@@H](O)CO [xylitol]
Keratinocytes [4]
  effect on DNA synthesis ([3H]thymidine incorporation) in keratinocytes: little or no effect

## Palmitoyl, arachidonyl-PG
Keratinocytes [1]
  inhibition of proliferation in rapidly dividing keratinocytes: particularly effective at inhibiting proliferation

## CCCCCCCCCCCCCC(=O)O[C@@H]1[C@@H](C)[C@@]2(O)[C@@H](C=C(CO)C[C@]3(O)C(=O)C(C)=C[C@@H]23)[C@H]2C(C)(C)[C@]12OC(C)=O [TPA]
Keratinocytes [5]; acute stimulation
  radiolabeled phosphatidylglycerol levels: no increase
PLD
  PLD activity: activates PLD

## OC[C@@H](O)[C@@H](O)[C@H](O)[C@@H](O)CO [sorbitol]
Keratinocytes [4]
  effect on DNA synthesis ([3H]thymidine incorporation) in keratinocytes: little or no effect

## CCCCCCCC/C=C\CCCCCCCC(=O)OC[C@H](COP(=O)(O)OCC(O)CO)OC(=O)CCCCCCC/C=C\CCCCCCCC (stereo partly drawn) [dioleoylphosphatidylglycerol]
Keratinocytes [1]
  promotion of proliferation in slowly dividing keratinocytes: especially effective proproliferative
[2]; 50 mg/ml liposomes, relative to control
  wound closure: significantly enhanced wound closure
